Measurements reported in PubChem BioAssay AID1259407 (Chemical Carcinogenesis Research Information System (CCRIS), 2018).
The source made the active and inactive calls. No rule for the calls is given here.

System: CCRIS mutagenicity, Ames/micronucleus/aberration tests
Assay: CCRIS mutagenicity studies
[1] = Test System: AMES SALMONELLA TYPHIMURIUM, Strain/Indicator: TA98, Metabolic Activation: NONE, Method: PREINCUBATION
[2] = Test System: AMES SALMONELLA TYPHIMURIUM, Strain/Indicator: TA100, Metabolic Activation: NONE, Method: PREINCUBATION
[3] = Test System: AMES SALMONELLA TYPHIMURIUM, Strain/Indicator: TA98, Metabolic Activation: NONE, Method: STANDARD PLATE
[4] = Test System: AMES SALMONELLA TYPHIMURIUM, Strain/Indicator: TA98, Metabolic Activation: RAT, LIVER, S-9, AROCLOR 1254, Method: STANDARD PLATE
[5] = Test System: AMES SALMONELLA TYPHIMURIUM, Strain/Indicator: TA100, Metabolic Activation: NONE, Method: STANDARD PLATE
[6] = Test System: AMES SALMONELLA TYPHIMURIUM, Strain/Indicator: TA100, Metabolic Activation: RAT, LIVER, S-9, AROCLOR 1254, Method: STANDARD PLATE
[7] = Test System: AMES SALMONELLA TYPHIMURIUM, Strain/Indicator: TA1535, Metabolic Activation: NONE, Method: STANDARD PLATE
[8] = Test System: AMES SALMONELLA TYPHIMURIUM, Strain/Indicator: TA1535, Metabolic Activation: RAT, LIVER, S-9, AROCLOR 1254, Method: STANDARD PLATE
[9] = Test System: AMES SALMONELLA TYPHIMURIUM, Strain/Indicator: TA1537, Metabolic Activation: NONE, Method: STANDARD PLATE
[10] = Test System: AMES SALMONELLA TYPHIMURIUM, Strain/Indicator: TA1537, Metabolic Activation: RAT, LIVER, S-9, AROCLOR 1254, Method: STANDARD PLATE

`Nc1c2c(nc3ccccc13)CCCC2` was tested, and the mutagenic call (Test System: AMES SALMONELLA TYPHIMURIUM, Strain/Indicator: TA97, Metabolic Activation: HAMSTER LIVER S-9, AROCLOR 1254 (30%), Method: PREINCUBATION) was “active; positive”, the mutagenic call (Test System: AMES SALMONELLA TYPHIMURIUM, Strain/Indicator: TA97, Metabolic Activation: NONE, Method: PREINCUBATION) was “active; positive” and the mutagenic call (Test System: AMES SALMONELLA TYPHIMURIUM, Strain/Indicator: TA97, Metabolic Activation: RAT LIVER S-9, AROCLOR 1254 (30%), Method: PREINCUBATION) was “active; positive”. For the same molecule, the mutagenic call (Test System: AMES SALMONELLA TYPHIMURIUM, Strain/Indicator: TA98, Metabolic Activation: HAMSTER LIVER S-9, AROCLOR 1254 (5 OR 10%), Method: PREINCUBATION) was “inactive; negative”, the mutagenic call (Test System: AMES SALMONELLA TYPHIMURIUM, Strain/Indicator: TA98, Metabolic Activation: HAMSTER LIVER S-9, AROCLOR 1254 (30%), Method: PREINCUBATION) was “active; positive” and the mutagenic call [1] was “inactive; negative”. For the same molecule, the mutagenic call (Test System: AMES SALMONELLA TYPHIMURIUM, Strain/Indicator: TA98, Metabolic Activation: RAT LIVER S-9, AROCLOR 1254 (5%), Method: PREINCUBATION) was “active; positive”, the mutagenic call (Test System: AMES SALMONELLA TYPHIMURIUM, Strain/Indicator: TA98, Metabolic Activation: RAT LIVER S-9, AROCLOR 1254 (10%), Method: PREINCUBATION) was “active; positive” and the mutagenic call (Test System: AMES SALMONELLA TYPHIMURIUM, Strain/Indicator: TA98, Metabolic Activation: RAT LIVER S-9, AROCLOR 1254 (30%), Method: PREINCUBATION) was “inactive; negative”. The mutagenic call [2] was “inactive; negative”, the mutagenic call (Test System: AMES SALMONELLA TYPHIMURIUM, Strain/Indicator: TA100, Metabolic Activation: RAT LIVER S-9, AROCLOR 1254 (30%), Method: PREINCUBATION) was “inactive; negative” and the mutagenic call (Test System: UDS MOUSE HEPATOCYTES, Strain/Indicator: THY INCORP, Metabolic Activation: NONE, Method: AUTORADIOGRAPHY) was “active; positive”. The mutagenic call (Test System: UDS RAT HEPATOCYTES, Strain/Indicator: THY INCORP, Metabolic Activation: NONE, Method: AUTORADIOGRAPHY) was “active; positive”.

`CC1CCC(C(C)C)C(=O)C1` (stereo not drawn) was tested, and the mutagenic call (Test System: AMES SALMONELLA TYPHIMURIUM, Strain/Indicator: TA97, Metabolic Activation: NONE, Method: STANDARD PLATE) was “active; positive”, the mutagenic call [3] was “inactive; negative” and the mutagenic call [4] was “inactive; negative”. The mutagenic call [5] was “inactive; negative”, the mutagenic call [6] was “inactive; negative” and the mutagenic call [7] was “inactive; negative”. The mutagenic call [8] was “inactive; negative”, the mutagenic call [9] was “inactive; negative” and the mutagenic call [10] was “inactive; negative”.

With `c1cc2ccc3cc4ccoc4c4ccc(c1)c2c34` the mutagenic call [3] was “inactive; negative” and the mutagenic call [4] was “active; positive”.

`O=P(Oc1ccccc1)(Oc1ccccc1)Oc1ccccc1` was tested, and the mutagenic call (Test System: AMES SALMONELLA TYPHIMURIUM, Strain/Indicator: TA98, Metabolic Activation: HAMSTER, LIVER, S-9, AROCLOR 1254 (10%), Method: PREINCUBATION) was “inactive; negative”, the mutagenic call [1] was “inactive; negative” and the mutagenic call (Test System: AMES SALMONELLA TYPHIMURIUM, Strain/Indicator: TA98, Metabolic Activation: RAT, LIVER, S-9, AROCLOR 1254 (10%), Method: PREINCUBATION) was “inactive; negative”. For the same molecule, the mutagenic call (Test System: AMES SALMONELLA TYPHIMURIUM, Strain/Indicator: TA100, Metabolic Activation: HAMSTER, LIVER, S-9, AROCLOR 1254 (10%), Method: PREINCUBATION) was “inactive; negative”, the mutagenic call [2] was “inactive; negative” and the mutagenic call (Test System: AMES SALMONELLA TYPHIMURIUM, Strain/Indicator: TA100, Metabolic Activation: RAT, LIVER, S-9, AROCLOR 1254 (10%), Method: PREINCUBATION) was “inactive; negative”. For the same molecule, the mutagenic call (Test System: AMES SALMONELLA TYPHIMURIUM, Strain/Indicator: TA1535, Metabolic Activation: HAMSTER, LIVER, S-9, AROCLOR 1254 (10 OR 50%), Method: PREINCUBATION) was “inactive; negative”, the mutagenic call (Test System: AMES SALMONELLA TYPHIMURIUM, Strain/Indicator: TA1535, Metabolic Activation: NONE, Method: PREINCUBATION) was “inactive; negative” and the mutagenic call (Test System: AMES SALMONELLA TYPHIMURIUM, Strain/Indicator: TA1535, Metabolic Activation: RAT, LIVER, S-9, AROCLOR 1254 (10%), Method: PREINCUBATION) was “inactive; negative”. The mutagenic call (Test System: AMES SALMONELLA TYPHIMURIUM, Strain/Indicator: TA1537, Metabolic Activation: HAMSTER, LIVER, S-9, AROCLOR 1254 (10 OR 50%), Method: PREINCUBATION) was “inactive; negative”, the mutagenic call (Test System: AMES SALMONELLA TYPHIMURIUM, Strain/Indicator: TA1537, Metabolic Activation: NONE, Method: PREINCUBATION) was “inactive; negative” and the mutagenic call (Test System: AMES SALMONELLA TYPHIMURIUM, Strain/Indicator: TA1537, Metabolic Activation: RAT, LIVER, S-9, AROCLOR 1254 (10%), Method: PREINCUBATION) was “inactive; negative”.

`CN(C)C(=O)c1nc(CNC(=O)CN)n(-c2ccc(Cl)cc2C(=O)c2ccccc2Cl)n1` was tested, and the mutagenic call [3] was “inactive; negative”, the mutagenic call [4] was “inactive; negative” and the mutagenic call [5] was “inactive; negative”. For the same molecule, the mutagenic call [6] was “inactive; negative”, the mutagenic call (Test System: AMES SALMONELLA TYPHIMURIUM, Strain/Indicator: TA102, Metabolic Activation: NONE, Method: STANDARD PLATE) was “inactive; negative” and the mutagenic call (Test System: AMES SALMONELLA TYPHIMURIUM, Strain/Indicator: TA102, Metabolic Activation: RAT, LIVER, S-9, AROCLOR 1254, Method: STANDARD PLATE) was “inactive; negative”. The mutagenic call [7] was “inactive; negative”, the mutagenic call [8] was “inactive; negative” and the mutagenic call [9] was “inactive; negative”. For the same molecule, the mutagenic call [10] was “inactive; negative”, the mutagenic call (Test System: E. COLI, Strain/Indicator: WP2 UVRA, Metabolic Activation: NONE, Method: STANDARD PLATE) was “inactive; negative” and the mutagenic call (Test System: E. COLI, Strain/Indicator: WP2 UVRA, Metabolic Activation: RAT, LIVER, S-9, AROCLOR 1254, Method: STANDARD PLATE) was “inactive; negative”.
